From US20260048118A1, “COMPOSITIONS AND METHODS FOR ENHANCING TRIPLEX AND NUCLEASE-BASED GENE EDITING” (Yale University, priority 2018, published 2026) come the findings set out here.

Assay [1] deals with bone marrow cells of Townes mice (codon 6 mutation in the beta globin gene). The assay is described as follows: In vivo PNA/DNA editing in Townes mice, bone marrow cells analysed by ddPCR. Further details: species or system mouse. As to conditions: 4 doses of 2 mg nanoparticles over 2 weeks, analysed after two months; 3E10 line: 1 mg 3E10 i.p. 3 h prior to each dose. As for the experimental part:
To further validate whether 3E10 can boost gene editing in vivo, the Townes model (the same sickle cell transgenic mouse model used in Examples 3 and 4) was used. Mice were injected with a total of 4 doses of 2 mg of nanoparticles containing PNA/donor DNA over the course of 2 weeks, with the goal of correcting the codon 6 mutation in the beta globin gene. Three hours prior to each nanoparticle administration, mice were injected with 1 mg of 3E10 intraperitoneally (i.p). After two months, bone marrow cells were harvested and analyzed for editing via digital droplet PCR (ddPCR). Injections were performed […] every 3 days over the course of 2 weeks as described above.

Assay [2] concerns SC-1 cells, a human lymphoblastoid cell line that carries the SCD mutation. The experiment in a line: Beta globin editing in SC-1 cells, ddPCR. In kind it is cell-based. As to conditions: 2 mg nanoparticles per well, 48 h, 3E10 line: 3E10 prior to nanoparticles. As for the experimental part:
SC-1 cells, a human lymphoblastoid cell line that carries the SCD mutation, were treated with 2 mg of nanoparticles per well with or without 3E10. After 48 hours, the cells were washed prior to genomic DNA isolation (SV Wizard, Promega). Freshly isolated genomic DNA was analyzed by droplet digital PCR (ddPCR) for editing frequencies.

The test system of assay [3] is CD117+ cells from bone marrow and spleen of β-globin/GFP transgenic mice. The assay is described as follows: In vivo gene editing in CD117+ cells of β-globin/GFP transgenic mice, GFP flow cytometry. Further details: species or system mouse. As to conditions: 0.5 mg 3E10 i.p. 3 h before 2 mg PNA/DNA nanoparticles i.v.; harvested after eight days. As for the experimental part: To evaluate the effects of 3E10 on PNA/DNA directed gene editing in vivo, the same β-globin/GFP transgenic mouse model described above was used. Three hours prior to treatment with nanoparticles, mice were injected with 0.5 mg of 3E10 intraperitoneally (i.p.). Either the full-length 3E10 or a single-chain variable fragment (scFv) were used. Two mg of nanoparticles containing PNA/Donor DNA were then injected intravenously. After eight days, bone marrow and spleens were harvested and CD117+ cells (C-KIT+, a marker of hematopoietic stem and progenitor cells) from these tissues were isolated using a Hematopoietic Progenitor Stem Cell Enrichment Set (BD Bioscience). Following enrichment, cells were analyzed via flow cytometry for GFP expression.
A general note: In flow cytometry, cells or beads pass a laser one at a time.

For assay [4], the system named is bone marrow cells from Townes mice (beta globin gene, SCD mutation). The experiment in a line: PNA/DNA editing of beta globin SCD mutation in bone marrow cells from Townes mice, ddPCR. It is filed as cell-based, mouse. The note with it: 2 mg nanoparticles per well, 48 h, 3E10 line: full length 3E10 plus nanoparticles. As for the experimental part:
Bone marrow cells were isolated from the same transgenic mouse model of sickle cell disease described above in Example 3 (Townes model, Jackson Laboratory). Cells were treated with full length 3E10 plus 2 mg of nanoparticles per well. The nanoparticles contained the donor DNA plus tcPNA2A, designed to bind to and correct the beta globin gene at the site of the SCD mutation (A:T to T:A).
After 48 hours, the cells were washed prior to genomic DNA isolation (SV Wizard, Promega). Freshly isolated genomic DNA was analyzed by droplet digital PCR (ddPCR) to quantify gene editing frequencies.

Assay [5] relates to K562 cells carrying a BFP/GFP reporter gene. The assay is described as follows: CRISPR/Cas9 D10A nickase gene editing in K562 BFP/GFP reporter cells, flow cytometry. In kind it is cell-based, human. The note with it: full-length 3E10 1.5 mg/mL=10 μM, RNP plus donor DNA nucleofected, two days. On the procedure:
K562 cells carrying a BFP/GFP reporter gene (Richardson, et al., Nat. Biotechnol., 34 (3): 339-44 (2016)) were transfected with CRISPR/Cas9 WT or CRISPR/Cas9 D10A nickase variant enzymes plus a guide RNA targeting the mutation site in GFP. Some samples were also treated with full-length 3E10, at a concentration of 1.5 mg/mL=10 μM.
Cas9 protein and guide RNAs were introduced by nucleofection as a ribonucleoprotein (RNP) complex. 45 pmol of Cas9 protein (D10A nickase variant or WT, both obtained from PNA Bio) with 45 pmol of sgRNA (synthesized with Invitrogen GeneArt kit) in Cas9 nuclease buffer (NEB), were pre-incubated for 5 minutes at room temperature.
Cells were nucleofected with the RNP complex and donor DNA having the sequence:
The frequency of gene editing was measured two days later by flow cytometry for green fluorescence.

For the substance “3E10: cell-penetrating monoclonal anti-DNA antibody that binds to and inhibits RAD51; produced by ATCC No. PTA 2439 hybridoma”, in assay [1], the “average editing frequency in bone marrow cells (ddPCR)” value was 2.1%. Besides, the “gene editing frequency (ddPCR)” value in assay [2] is 17%. Besides, in assay [3], the “gene editing in bone marrow CD117+ cells vs nanoparticles alone” value was “higher levels of gene editing” and the “gene editing in spleen CD117+ cells vs nanoparticles alone” value is reported as “higher levels of gene editing”. For the same substance, in assay [4], the “gene editing frequency (ddPCR)” value is reported as “more than 8%”. Further, the “effect on gene editing by nickase Cas9 D10A (green fluorescence)” value in assay [5] is recorded as “substantially boosted gene editing”.
